US9409907B2, “Inhibitor compounds” (Cancer Research Technology Limited, priority 2012, dated 2016)

molecular target: full length MPS1 (Homo sapiens (Human), UniProt P33981); test: Measurement of inhibition of MPS1 kinase (Caliper EZ reader mobility-shift enzyme assay); assay type: biochemical; settings: full length MPS1 12.5 nM or 3 nM, H236 peptide 5 μM, ATP 10 μM, 60 min at room temperature
Description: Measurement of Inhibition of MPS1 Kinase
The reaction was carried out for 60 min at room temperature and stopped by the addition of buffer (10 μl) containing 20 mM EDTA, 0.05% (v/v) Brij-35, in 0.1M HEPES-buffered saline (Free acid, Sigma, UK). The plate was read on a Caliper EZ reader II (Caliper Life Sciences).
The % inhibition of the compounds is calculated relative to the means of selected control wells.

Sequence of full length MPS1 (P33981 whole entry): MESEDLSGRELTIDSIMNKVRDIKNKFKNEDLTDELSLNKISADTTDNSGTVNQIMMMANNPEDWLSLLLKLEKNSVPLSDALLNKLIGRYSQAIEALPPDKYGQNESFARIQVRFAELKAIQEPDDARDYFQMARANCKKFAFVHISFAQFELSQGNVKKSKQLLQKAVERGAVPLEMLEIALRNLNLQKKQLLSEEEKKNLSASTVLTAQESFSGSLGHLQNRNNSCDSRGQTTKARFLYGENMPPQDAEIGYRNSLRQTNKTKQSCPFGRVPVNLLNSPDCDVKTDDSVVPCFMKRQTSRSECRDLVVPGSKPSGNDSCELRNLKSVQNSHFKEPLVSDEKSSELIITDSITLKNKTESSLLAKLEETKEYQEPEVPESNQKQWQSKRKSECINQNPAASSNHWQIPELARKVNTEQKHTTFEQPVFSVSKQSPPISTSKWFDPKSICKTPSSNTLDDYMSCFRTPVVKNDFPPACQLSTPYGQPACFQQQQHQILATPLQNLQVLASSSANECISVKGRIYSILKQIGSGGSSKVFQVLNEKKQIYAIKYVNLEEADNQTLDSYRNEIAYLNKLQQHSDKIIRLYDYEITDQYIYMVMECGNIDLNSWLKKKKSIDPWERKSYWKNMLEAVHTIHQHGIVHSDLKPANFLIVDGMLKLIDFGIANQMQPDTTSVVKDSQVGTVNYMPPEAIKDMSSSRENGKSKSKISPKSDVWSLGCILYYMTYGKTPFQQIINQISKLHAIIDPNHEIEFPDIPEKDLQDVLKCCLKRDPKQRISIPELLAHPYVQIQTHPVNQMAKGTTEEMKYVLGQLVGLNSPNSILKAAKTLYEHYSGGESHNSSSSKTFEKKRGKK

First: CCOc1cc(-c2cnn(C)c2)ccc1Nc1ncc2ccnc(NC3CCOCC3)c2n1 [Example 102, N2-(2-ethoxy-4-(1-methyl-1H-pyrazol-4-yl)phenyl)-N8-(tetrahydro-2H-pyran-4-yl)pyrido[3,4-d]pyrimidine-2,8-diamine]
Second: COc1cc(-c2cnn(C)c2)ccc1Nc1ncc2ccnc(NC3COC3)c2n1 [Example 111, N^2-(2-methoxy-4-(1-methyl-1H-pyrazol-4-yl)phenyl)-N^8-(oxetan-3-yl)pyrido[3,4-d]pyrimidine-2,8-diamine]
The IC50 of the first is lower: 10 nM for the first, greater than 1000 nM for the second.

`COc1cc(-c2cnn(C)c2)ccc1Nc1ncc2ccnc(NCC(C)(C)CO)c2n1` [Example 74, 3-((2-((2-methoxy-4-(1-methyl-1H-pyrazol-4-yl)phenyl)amino)pyrido[3,4-d]pyrimidin-8-yl)amino)-2,2-dimethylpropan-1-ol] and `COc1cc(-c2cnn(C)c2)ccc1Nc1ncc2ccnc(N[S+]([O-])C(C)(C)C)c2n1` (racemic) [Example 143, (±)-N-(2-(2-methoxy-4-(1-methyl-1H-pyrazol-4-yl)phenylamino)pyrido[3,4-d]pyrimidin-8-yl)-2-methylpropane-2-sulfinamide] are within 1.5-fold of each other in IC50: 4 nM for the first, 5 nM for the second.

First: COc1cc(C(=O)N(C)C)ccc1Nc1ncc2ccnc(NCC(C)(C)OC)c2n1 [Example 194]
Second: COc1nc(-c2cnn(C)n2)ccc1Nc1ncc2ccnc(NCC(C)(C)OC)c2n1 [Example 167, N^8-(2-Methoxy-2-methylpropyl)-N^2-(2-methoxy-6-(2-methyl-2H-1,2,3-triazol-4-yl)pyridin-3-yl)pyrido[3,4-d]pyrimidine-2,8-diamine]
The IC50 of the first is 2.1-fold lower: 11 nM for the first, 23 nM for the second.

Compared with `COc1cc(-c2ncnn2C)ccc1Nc1ncc2cc(C)nc(NCC(C)(C)OC)c2n1` [Example 196], `COc1cc(-c2nncn2C)ccc1Nc1ncc2cc(C)nc(NCC(C)(C)OC)c2n1` [Example 180] is 6.7-fold lower in IC50: 20 nM for the first, 3 nM for the second.

`COc1cc(-c2cnc(C)n2C)ccc1Nc1ncc2cc(C)nc(NCC(C)(C)OC)c2n1` [Example 158] and `COc1cc(-c2cnc(C)n2C)ccc1Nc1ncc2ccnc(-c3cnn(C)c3)c2n1` [Example 40, N-(4-(1,2-dimethyl-1H-imidazol-5-yl)-2-methoxyphenyl)-8-(1-methyl-1H-pyrazol-4-yl)pyrido[3,4-d]pyrimidin-2-amine] are within 1.5-fold of each other in IC50: 3 nM for the first, 4 nM for the second.

Going from `COc1cc(C(=O)N(C)C)ccc1Nc1cc2c(-c3cnn(C)c3)cccc2cn1` [Example 25] to `COc1cc(C(=O)N2CC(OC)C2)ccc1Nc1cc2c(-c3cnn(CCN(C)C)c3)cccc2cn1` [Example 1, (4-((5-(1-(2-(Dimethylamino)ethyl)-1H-pyrazol-4-yl)isoquinolin-3-yl)amino)-3-methoxyphenyl)(3-methoxyazetidin-1-yl)methanone], the IC50 rises from 28 nM to 61 nM (2.2-fold). The first is the more potent here.

Compared with `COc1cc(N2CCN(S(C)(=O)=O)CC2)ccc1Nc1ncc2cc(C)nc(NCC(C)(C)C)c2n1` [Example 183], `COc1cc(N2CCN(S(C)(=O)=O)CC2)ccc1Nc1ncc2ccnc(NCC(C)(C)C)c2n1` [Example 176, N2-(2-methoxy-4-(4-(methylsulfonyl)piperazin-1-yl)phenyl)-N8-neopentylpyrido[3,4-d]pyrimidine-2,8-diamine] is 5.3-fold lower in IC50: 16 nM for the first, 3 nM for the second. The second is the more potent here.

`COc1cc(-c2cnn(C)c2)ccc1Nc1ncc2ccnc(NC(C)CO)c2n1` (racemic) [Example 129, Racemic 2-(2-(2-Methoxy-4-(1-methyl-1H-pyrazol-4-yl)phenylamino)pyrido[3,4-d]pyrimidin-8-ylamino)propan-1-ol] and `COc1cc(-c2cnn(C)c2)ccc1Nc1ncc2ccnc(N3CCC(O)C3)c2n1` (stereo not shown) [Example 80, 1-(2-(2-methoxy-4-(1-methyl-1H-pyrazol-4-yl)phenylamino)pyrido[3,4-d]pyrimidin-8-yl)pyrrolidin-3-ol] are within 1.5-fold of each other in IC50: 7 nM for the first, 6 nM for the second.

`COc1cc(C(=O)N2CC(OC)C2)ccc1Nc1cc2c(-c3cnn(C4CCN(C(=O)OC(C)(C)C)CC4)c3)cccc2cn1` [Example 3, tert-butyl 4-(4-(3-((2-methoxy-4-(3-methoxyazetidine-1-carbonyl)phenyl)-amino)isoquinolin-5-yl)-1H-pyrazol-1-yl)piperidine-1-carboxylate] and `COc1cc(C(=O)N2CC(OC)C2)ccc1Nc1cc2c(-c3cncnc3)cccc2cn1` [Example 15, (3-methoxy-4-((5-(pyrimidin-5-yl)isoquinolin-3-yl)amino)phenyl)(3-methoxyazetidin-1-yl)methanone] are within 1.5-fold of each other in IC50: 125 nM for the first, 98 nM for the second.

`COc1cc(-c2nncn2C)ccc1Nc1ncc2ccnc(NCC(C)(C)C)c2n1` [Example 175, N2-(2-methoxy-4-(4-methyl-4H-1,2,4-triazol-3-yl)phenyl)-N8-neopentylpyrido[3,4-d]pyrimidine-2,8-diamine] and `COCCn1c(-c2ccc(Nc3ncc4ccnc(NCC5(C)CCOC5)c4n3)c(OC)c2)cnc1C` (stereo not shown) [Example 187] are the same in IC50: 2 nM for the first, 2 nM for the second.

`COc1cc(-c2cnn(C)c2)ccc1Nc1ncc2ccnc(N3CCC(C#N)CC3)c2n1` [Example 140, 1-(2-(2-Methoxy-4-(1-methyl-1H-pyrazol-4-yl)phenylamino)pyrido[3,4-d]pyrimidin-8yl)piperidine-4-carbonitrile] and `COc1cc(-c2cnn(C)c2)ccc1Nc1ncc2ccnc(N3CC4(COC4)C3)c2n1` [Example 115, N-(2-methoxy-4-(1-methyl-1H-pyrazol-4-yl)phenyl)-8-(2-oxa-6-azaspiro[3.3]heptan-6-yl)pyrido[3,4-d]pyrimidin-2-amine] are within 1.5-fold of each other in IC50: 4 nM for the first, 3 nM for the second.

Going from `COc1cc(C#N)ccc1Nc1ncc2ccnc(N3CCC4(COC4)C3)c2n1` [Example 206] to `COc1cc(-c2cnn(C)c2)ccc1Nc1ncc2cc(C3CC3)nc(N3CCC4(COC4)C3)c2n1` [Example 136, 6-Cyclopropyl-N-(2-methoxy-4-(1-methyl-1H-pyrazol-4-yl)phenyl)-8-(2-oxa-6-azaspiro[3.4]octan-6-yl)pyrido[3,4-d]pyrimidin-2-amine], the IC50 rises from 17 nM to 93 nM (5.5-fold). The first is the more potent here.

In the case of `COc1cc(N2CCC(N3CCOCC3)CC2)ccc1Nc1ncc2ccnc(NCC(C)(C)C)c2n1` [Example 170, N2-(2-methoxy-4-(4-morpholinopiperidin-1-yl)phenyl)-N8-neopentylpyrido[3,4-d]pyrimidine-2,8-diamine], the IC50 is reported as 4 nM.
